{
  "source": "patent EP3892267A1",
  "about": "“C[…] FOR LYMPHOMA” (Université de Paris, priority 2020, dated 2021)",
  "key": {"[1]": {"tested_on": "MD901 cell line", "test": "Immunoblotting for cleaved caspase 3", "assay_type": "cell-based, Human", "settings": "MD901 (ABC); metformin 2.5mM, Kidrolase 2UI/mL, alone or combined", "protocol": "(§1) The cells are washed in cold 1X PBS then lysis is carried out at 4°C (on ice) for 20 minutes, using a mix containing a High Salt buffer (0.4 M NaCl). 25 mM Hepes pH 7.7, 1.5 mM MgCI 2, 0.2 mM EDTA, 1%NP4O), protease and phosphatase inhibitors (20 mM glycerol phosphate, 0.2 mM Na3VO4, 10mM PNPP, 2 mM DTT, […] and an inhibitor cocktail from Boehringer Company). Whole cell extracts are centrifuged also at 4°C for 10 minutes at 13 000 rpm, the supernatant is transferred to an Eppendorf tube and the proteins are dosed using a protein kit assay (Bio-Rad) and stored at - 80°C. Immunoblotting was performed as previously reported (Authier H et al, 2014). Cleaved caspase 3 and β-actin antibodies are from Cell Signaling Technologies and Sigma, respectively."}, "[2]": {"tested_on": "OCI-LY19 cell line", "test": "Immunoblotting for cleaved caspase 3", "assay_type": "cell-based, Human", "settings": "OCI-LY19 (GCB); metformin 2.5mM, Kidrolase 2UI/mL, alone or combined", "protocol": "as §1"}},
  "note": "Structures can show the parent of a compound that is named as a salt.",
  "data": [
    {"smiles": "CN(C)C(=N)N=C(N)N", "note": "[metformin, Metformin hydrochloride]", "values": [
      {"measurement": "activation of caspase 3 (cleaved caspase 3)", "setting": "[1]", "value": "not to barely detectable"},
      {"measurement": "activation of caspase 3 (cleaved caspase 3)", "setting": "[2]", "value": "not to barely detectable"}
    ]}
  ]
}
